This test addresses T1, vanilloid receptor (Rattus norvegicus, UniProt O35433).
T1 construct: DRG nerve cells from the primary culture of 2 days were equilibrated by washing 4 times; endogenous in cells; host or cells: primary culture of dorsal root ganglion neurons from neonatal SD rats
The test is described as follows: 45Ca influx test (calcium uptake) in primary cultured DRG neurons, capsaicin 0.5 μM. The test is classed as cell-based. The settings on record: rat DRG neurons, capsaicin 0.5 μM, 45Ca; read-out: Antagonist Calcium Uptake Test (IC50). On the procedure:
1) Separation of Spinal Dorsal Root Ganglia (DRG) in Newborn Rats and Primary Culture Thereof
Neonatal (2-3 day old or younger than 2-3 day old) SD rats were put in ice for 5 minutes to anesthetize and disinfected with 70% ethanol. […] The DRG were incubated sequentially at 37° C. for 30 mins in 200 U/ml collagenase and 2.5 mg/ml trypsin, separately. The ganglia were washed twice with DME/F12 medium supplemented with 10% horse serum, triturated through a fire-polished Pasteur pipette, filtered through Nitex 80 membrane to obtain single cell suspension and the suspension was washed once more. This was subjected to centrifugation, then resuspended in cell culture medium at certain level of cell density. As the cell culture medium, DME/F12 medium supplemented with 10% horse serum was diluted with identical medium conditioned by C6 glioma cells 2 days on a confluent monolayer (1:1), and NGF (Nerve Growth Factor) was added to adjust 200 ng/ml as final concentration. After the cells were grown 2 days in medium where cytosine arabinoside (Ara-C, 100 μM) was added to kill dividing nonneuronal cells, medium was changed to one without Ara-C. The resuspended cells were plated at a density of 1500-2000 neurons/well onto Terasaki plates previously coated with 10 μg/ml poly-D-ornithine.
2) ^45Ca Influx Experiments
DRG nerve cells from the primary culture of 2 days were equilibrated by washing 4 times with HEPES (10 mM, pH 7.4)-buffered Ca^2+, Mg^2+-free HBSS (H-HBSS). The solution in each well was removed from the individual well. Medium containing the test compound plus capsaicin (final concentration 0.5 μM) and ^45Ca (final concentration 10 μCi/ml) in H-HBSS was added to each well and incubated at room temperature for 10 mins. Terasaki plates were washed five times with H-HBSS and dried at room temperature. To each well, 0.3% SDS (10 μl) was added to elute ^45Ca. After the addition of scintillation cocktail of into each well, the amount of ^45Ca influx into neuron was measured by counting radioactivity.

T1 sequence (O35433 whole entry): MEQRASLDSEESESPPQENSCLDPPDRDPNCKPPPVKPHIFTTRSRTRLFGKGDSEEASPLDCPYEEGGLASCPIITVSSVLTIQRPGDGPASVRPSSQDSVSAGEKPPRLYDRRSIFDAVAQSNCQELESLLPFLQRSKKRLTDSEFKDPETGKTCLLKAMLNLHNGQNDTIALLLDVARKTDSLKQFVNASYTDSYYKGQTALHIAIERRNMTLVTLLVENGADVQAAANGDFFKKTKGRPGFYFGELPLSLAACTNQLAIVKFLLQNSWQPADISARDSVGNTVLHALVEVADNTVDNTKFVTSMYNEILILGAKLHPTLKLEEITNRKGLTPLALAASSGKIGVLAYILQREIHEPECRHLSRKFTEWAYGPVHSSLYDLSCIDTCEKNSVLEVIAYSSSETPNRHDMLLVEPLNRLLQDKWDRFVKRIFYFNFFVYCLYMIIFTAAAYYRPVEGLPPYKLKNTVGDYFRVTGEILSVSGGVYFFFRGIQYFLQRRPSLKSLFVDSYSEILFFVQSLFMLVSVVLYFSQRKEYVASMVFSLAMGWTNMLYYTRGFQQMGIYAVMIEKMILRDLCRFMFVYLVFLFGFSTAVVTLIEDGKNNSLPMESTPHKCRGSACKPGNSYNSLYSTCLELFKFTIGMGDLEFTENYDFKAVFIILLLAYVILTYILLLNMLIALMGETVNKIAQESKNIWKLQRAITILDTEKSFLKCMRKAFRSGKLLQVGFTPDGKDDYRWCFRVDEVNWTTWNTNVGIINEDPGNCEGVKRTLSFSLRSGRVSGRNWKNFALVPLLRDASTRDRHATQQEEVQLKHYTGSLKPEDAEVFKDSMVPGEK

What is called IC50 is the concentration that inhibits the measured activity by half. Regarding `CCCCOc1cc(F)ccc1/C=C/C(=O)NCc1cc(F)c(NS(C)(=O)=O)c(F)c1` [Example 34, 3-(2-Butoxy-4-fluoro-phenyl)-N-(3,5-difluoro-4-methanesulfonylamino-benzyl)-acrylamide], the IC50 came out at 980 nM.

Regarding `CCCOc1cc(C(F)(F)F)ccc1/C=C/C(=O)NCc1cc(F)c(NS(C)(=O)=O)c(F)c1` [Example 4, N-(3,5-Difluoro-4-methanesulfonylamino-benzyl)-3-(2-propoxy-4-trifluoromethyl-phenyl)-acrylamide], the IC50 turned out to be 380 nM.

With `CCNc1cc(C(F)(F)F)ccc1/C=C/C(=O)N[C@H](C)c1cc(F)c(NS(C)(=O)=O)c(F)c1` [Example 10, (R)—N-[1-(3,5-Difluoro-4-methanesulfonylamino-phenyl)-ethyl]-3-(2-ethylamino-4-trifluoromethyl-phenyl)-acrylamide], the IC50 is 50 nM.

For the molecule `CCCNc1cc(F)ccc1/C=C/C(=O)N[C@H](C)c1cc(F)c(NS(C)(=O)=O)c(F)c1` [Example 29, (R)—N-[1-(3,5-Difluoro-4-methanesulfonylamino-phenyl)ethyl]-3-(4-fluoro-2-propylaminophenyl)-acrylamide], the IC50 amounted to 160 nM.

On to `CCCNc1cc(C(F)(F)F)ccc1CCC(=O)NCc1cc(F)c(NS(C)(=O)=O)c(F)c1` [Example 56, N-(3,5-difluoro-4-methanesulfonylamino-benzyl)-3-(2-propylamino-4-trifluoromethyl-phenyl)-propionamide], for which the half-inhibitory concentration (IC50) was found to be 350 nM.

Consider `C#Cc1cc(CNC(=O)/C=C/c2ccc(C(F)(F)F)cc2CCC)cc(F)c1NS(C)(=O)=O` [Example 35, N-(3-Ethynyl-5-fluoro-4-methanesulfonylamino-benzyl)-3-(2-propyl-4-trifluoromethyl-phenyl)-acrylamide], for which the IC50 was 92 nM.

With `CCCc1cc(C(F)(F)F)ccc1/C=C/C(=O)N[C@H](CC)c1cc(F)c(NS(C)(=O)=O)c(F)c1` [Example 25, (R)—N-[1-(3,5-Difluoro-4-methanesulfonylamino-phenyl)-propyl]-3-(2-propyl-4-trifluoromethyl-phenyl)-acrylamide], the IC50 is 170 nM.

On to `C[C@@H](NC(=O)/C=C/c1ccc(C(F)(F)F)cc1OCC1CCCCC1)c1cc(F)c(NS(C)(=O)=O)c(F)c1` [Example 50, (R)-3-(2-Cyclohexylmethoxy-4-trifluoromethyl-phenyl)-N-[1-(3,5-difluoro-4-methanesulfonylamino-phenyl)-ethyl]-acrylamide], for which the IC50 was found to be 210 nM.

`CCCCOc1cc(C(F)(F)F)ccc1/C=C/C(=O)N[C@H](CC)c1cc(F)c(NS(C)(=O)=O)c(F)c1` (stereo in doubt) [Example 38, 3-(2-Butoxy-4-trifluoromethyl-phenyl)-N-[1-(3,5-difluoro-4-methanesulfonylamino-phenyl)-propyl]-acrylamide]: the IC50 is 1100 nM.

Take `CCCc1cc(C(F)(F)F)ccc1/C=C(\C)C(=O)N[C@H](C)c1ccc(NS(C)(=O)=O)c(F)c1` [Example 49, (R)—N-[1-(3-Fluoro-4-methanesulfonylamino-phenyl)-ethyl]-2-methyl-3-(2-propyl-4-trifluoromethyl-phenyl)-acrylamide]: the half-maximal inhibitory concentration (IC50) was 1400 nM.

In the case of `CCOc1cc(C(F)(F)F)ccc1/C=C/C(=O)N[C@H](CC)c1cc(F)c(NS(C)(=O)=O)c(F)c1` (stereo in doubt) [Example 37, N-[1-(3,5-Difluoro-4-methanesulfonylamino-phenyl)-propyl]-3-(2-ethoxy-4-trifluoromethyl-phenyl)-acrylamide], the IC50 is 1700 nM.

In the case of `CCC(C)Oc1cc(C(F)(F)F)ccc1/C=C/C(=O)N[C@H](C)c1cc(F)c(NS(C)(=O)=O)c(F)c1` (stereo partly drawn) [Example 39, (R)-3-(2-sec-Butoxy-4-trifluoromethyl-phenyl)-N-[1-(3,5-difluoro-4-methanesulfonylamino-phenyl)-ethyl]-acrylamide], the IC50 was 22 nM.

On to `CCC(C)Oc1cc(F)ccc1/C=C/C(=O)N[C@H](C)c1cc(F)c(NS(C)(=O)=O)c(F)c1` (stereo partly drawn) [Example 40, (R)-3-(2-sec-Butoxy-4-fluoro-phenyl)-N-[1-(3,5-difluoro-4-methanesulfonylamino-phenyl)-ethyl]-acrylamide], for which the IC50 turned out to be 100 nM.

In the case of `CCCCc1cc(C(F)(F)F)cc(CCCC)c1/C=C/C(=O)N[C@H](C)c1cc(F)c(NS(C)(=O)=O)c(F)c1` [Example 16, (R)-3-(2,6-Dibutyl-4-trifluoromethyl-phenyl)-N-[1-(3,5-difluoro-4-methanesulfonylamino-phenyl)-ethyl]-acrylamide], the IC50 turned out to be 220 nM.

In the case of `CCOc1cc(C(F)(F)F)ccc1/C=C/C(=O)N[C@H](C)c1cc(F)c(NS(C)(=O)=O)c(F)c1` [Example 7, (R)—N-[1-(3,5-Difluoro-4-methanesulfonylamino-phenyl)-ethyl]-3-(2-ethoxy-4-trifluoromethyl-phenyl)-acrylamide], the concentration for half-maximal inhibition (IC50) came out at 110 nM.

Take `CCOc1cc(C(F)(F)F)ccc1/C=C/C(=O)NCc1cc(F)c(NS(C)(=O)=O)c(C(F)(F)F)c1` [Example 15, 3-(2-Ethoxy-4-trifluoromethyl-phenyl)-N-(3-fluoro-4-methanesulfonylamino-5-trifluoromethyl-benzyl)-acrylamide]: the IC50 was 2400 nM.

For `CCCCc1cc(C(F)(F)F)ccc1/C=C/C(=O)N[C@H](C)c1ccc(NS(C)(=O)=O)c(F)c1` [Example 36, (R)-3-(2-Butyl-4-trifluoromethyl-phenyl)-N-[1-(3-fluoro-4-methanesulfonylamino-phenyl)-ethyl]-acrylamide], the 50% inhibitory concentration (IC50) amounted to 46 nM.

Consider `CCOc1cc(C(F)(F)F)ccc1/C=C/C(=O)NCc1cc(F)c(NS(C)(=O)=O)c(F)c1` [Example 8, N-(3,5-Difluoro-4-methanesulfonylamino-benzyl)-3-(2-ethoxy-4-trifluoromethyl-phenyl)-acrylamide], for which the IC50 was found to be 850 nM.

As for `CC(C)Oc1cc(C(F)(F)F)ccc1/C=C/C(=O)NCc1cc(F)c(NS(C)(=O)=O)c(F)c1` [Example 20, N-(3,5-Difluoro-4-methanesulfonylamino-benzyl)-3-(2-isopropoxy-4-trifluoromethyl-phenyl)-acrylamide], the IC50 came to 150 nM.

Regarding `CCNc1cc(F)ccc1/C=C/C(=O)N[C@H](C)c1cc(F)c(NS(C)(=O)=O)c(F)c1` [Example 42, (R)—N-[1-(3,5-Difluoro-4-methanesulfonylamino-phenyl)-ethyl]-3-(2-ethylamino-4-fluoro-phenyl)-acrylamide], the IC50 was 110 nM.

Consider `CCCOc1cc(F)ccc1/C=C/C(=O)N[C@H](C)c1cc(F)c(NS(C)(=O)=O)c(F)c1` [Example 27, (R)—N-[1-(3,5-Difluoro-4-methanesulfonylamino-phenyl)-ethyl]-3-(4-fluoro-2-propoxy-phenyl)-acrylamide], for which the IC50 came out at 170 nM.

In the case of `CCCNc1cc(C(F)(F)F)ccc1/C=C/C(=O)NCc1cc(F)c(NS(C)(=O)=O)c(C#N)c1` [Example 13, N-(3-Cyano-5-fluoro-4-methanesulfonylamino-benzyl)-3-(2-propylamino-4-trifluoromethyl-phenyl)-acrylamide], the IC50 was 120 nM.

On to `CCCNc1cc(C(F)(F)F)ccc1CCC(=O)N[C@H](C)c1cc(F)c(NS(C)(=O)=O)c(F)c1` [Example 55, (R)—N-[1-(3,5-difluoro-4-methanesulfonylamino-phenyl)-ethyl]-3-(2-propylamino-4-trifluoromethyl-phenyl)-propionamide], for which the IC50 is 190 nM.
